Experiment [1] has as its system Streptococcus pyogenes NZ131. The experiment in a line: Antimicrobial peptide co-culture with Streptococcus pyogenes (OD). The experiment is classed as cell-based. As to the method:
(§1) The powder was diluted with DMSO to different concentrations. Subsequently, after being co-cultured with pathogenic streptococcus for different time periods, it was confirmed whether the antimicrobial peptides were the antimicrobial peptide of GM-080 capable of inhibiting Streptococcus pyogenes NZ131 by OD6oonm or in a dish coating manner simultaneously.

Experiment [2] concerns Streptococcus pyogenes NZ131. Put plainly: Antimicrobial peptide co-culture, viable bacteria in a dish coating manner. The experiment is classed as cell-based. The following applies: 1-200 mg/mL. As to the method: as §1

As for “MELLNEKELAHVIGGKRKCPKTPFDNTPGAWFAHLILGC (GM-080; listed as Lactobacillus paracasei) [AMP-01026, antimicrobial peptide of Lactobacillus paracasei GM-080, synthesized]”, the “inhibition of Streptococcus pyogenes in a co-culture manner” value in experiment [1] (10-200 mg/mL, from 2-3 hours of co-culture, FIG. 8A) was “good inhibition effect”. Further, in experiment [2] (co-cultured for 2 or 5 hours, FIG. 9A), the “inhibition of growth of Streptococcus pyogenes in a dish coating manner (viable bacteria)” value was “significantly inhibit the growth”.
As for “MKQFDEQKMVNMSDEELLEFIGGDSIRDVSPTFNKIRRWFDGLFK (GM-080; listed as Lactobacillus paracasei) [AMP-01240, second predicted antimicrobial peptide segment of GM-080, synthesized]”, the “inhibition of growth of Streptococcus pyogenes in a co-culture manner” value in experiment [1] (1-200 mg/mL, FIG. 8B) is reported as “not capable of inhibiting the growth”. In addition, the “inhibition of growth of Streptococcus pyogenes in a dish coating manner” value in experiment [2] (FIG. 9B) is “not capable of inhibiting the growth”.

The values above are taken from patent publication US20250197460A1, “USE OF LACTOBACILLUS PARACASEI GM-080 AND PEPTIDES THEREOF FOR ANTIMICROBIA” (GenMont Biotech Incorporation, priority 2023, published 2025).
